Test results taken from patent US20260199493A1 (priority 2021, published 2026).
Where two headings read alike, the source gives them in different places. Starred links: 1 amine or outer side, 2 acyl side, 3 side chain; linkers in the order of their positions; H or OH if unused. Non-standard residues stand in square brackets, D forms with d. Residues, ends and D or L forms follow the SMILES beside them. Groups on a side chain read outwards from the residue. *: point of attachment. X1 = NC(=O)[C@H](CCCCNC(=O)COCCOCCNC(=O)CCC(=O)NCCOCCOCCCCCCCl)N*; Ala(piperidin-4-yl) = O=C([C@H](CC1CCN([*:3])CC1)N[*:1])[*:2]; Phe(4-guanidino) = N=C(N)Nc1ccc(C[C@H](N)C(=O)O)cc1; 2Nal = N[C@@H](Cc1ccc2ccccc2c1)C(=O)O; Lys(Me2) = CN(C)CCCC[C@H](N)C(=O)O; hArg = N=C(N)NCCCC[C@H](N)C(=O)O; Cit = NC(=O)NCCC[C@H](N)C(=O)O; Agb = N=C(N)NCC[C@H](N)C(=O)O; Agp = N=C(N)NC[C@H](N)C(=O)O; PEG4 = NCCOCCOCCOCCOCCC(=O)O

Assays:
[1] = system: HaloTag-ActA fusion protein; assay: Chloroalkane penetration assay (HaloTag); assay type: cell-based; conditions: HEK293-HaloTag cells, chloroalkane-tagged peptide, 24 h with FBS, then 5 μM TMR-ct
Description: Assay design. HEK293 cells were produced that stably express a HaloTag-ActA fusion protein (“HEK293-HaloTag”) which ensures fusion protein localization to the outer mitochondrial membrane with exposure to the cytosol. The HaloTag protein rapidly reacts covalently with short chloroalkane-containing compounds, occupying the active site and preventing further reactions. The chloroalkane penetration assay utilizes this reactivity in a pulse-chase assay where cells are first treated with cCPPs-chloroalkane of interest, followed by incubation with cell-permeable fluorescent dye tetramethylrhodamine-chloroalkane (“TMR-ct”). If cCPPs have gained access to the cytosol, they will react with HaloTag and prevent it from reacting with TMR-ct. The relative cell-penetrating efficiency of compounds can therefore be determined by their ability to reduce cellular TMR fluorescence after a washout period with this value expressed as IC50.
Cell penetrating peptides. Cell penetrating peptides having the sequences indicated in Table 13 (below) were functionalized on the lysine residue with a chloroalkane tag of the sequence N^1-(2-(2-((5-chlorohexyl)oxy)ethoxy)ethyl-N^4-(2-(2-(2-oxoethoxy)ethoxy)ethyl)succinamide (referred to as “chloroalkane” in Table 13), purified, and prepared as stock solutions in DMSO with concentration determined by A280 or weight as applicable.
Determination of cell-penetrating efficiency. Compounds to be evaluated were prepared as stock solutions in DMSO and diluted in PBS before addition to HEK293-HaloTag ells as a serial dilution from 30 μM to 0.5 nM. Cells were incubated with the compounds at a given concentration for 24 h in the presence of FBS at 37° C. After incubation, cells were washed thoroughly with PBS and to the cells was added fresh, serum-free media containing 5 μM TMR-ct and incubated for 30 min. After incubation, the cells were washed and incubated in fresh media to wash-out any unreacted TMR-ct. Cells were then imaged and quantified for cellular fluorescence using high-content imaging. Values are normalized to vehicle-treated cells and an IC50 calculated using a 4-parameter logarithmic fit in GraphPad PRISM v.8.

[2] = system: IRF5 protein
[3] = system: exon 23 of DMD
[4] = system: exon 44 of human dystrophin mRNA; assay: Exon 44 skipping by RT-PCR in hDMD mice; assay type: in vivo; conditions: hDMD mice, 5 days
Method: The hemizygous mice were further genotyped at Transnetyx. All groups were dosed 5 mL/kg per animal by intravenous (iv) injection and sacrificed after 5 days post injection. All animals were euthanized by CO2 asphyxiation followed by terminal blood collection via cardiac puncture. Maximum obtainable volume of whole blood was collected into lithium heparin tubes and processed to plasma. A portion of plasma was analyzed for clinical chemistries by the Testing Facility (IDEXX) and the rest stored frozen at nominally −70° C. […] Animals were age matched and assigned into eight (8) treatment groups according to Table 15. […] All animals survived until their scheduled euthanasia time. Tissues were collected per protocol. The amount of AC and a cCPP-AC in various tissue samples was quantified by LC-MS. Exon skipping in different tissues were analyzed by RT-PCR and the quantification of exon 44 correction.
Exon Skipping Analysis by RT-PCR: hDMD mice and NHP express full-length human dystrophin mRNA. The delivery of AC can alter the splicing and result in a shortened dystrophin mRNA after exon 44 skipping. The tissues were homogenized using 1 mL of RLT lysis buffer (Qiagen, Cat #79216). The detection of splicing correction process was measured by RT-PCR where extracted RNAs from tissues were first reverse-transcribed into cDNA and further analyzed by one step RT-PCR using the following primer set: forward primer 5′-[…]-3′ (SEQ ID NO: 262) and reverse primer 5′-[…]-3′ (SEQ ID NO: 263). […] Quantification of the relative intensity of the bands corresponding to skipped and unskipped transcripts were performed to assess AC-induced exon-44-skipping efficacy. The degree (percentage) of splicing correction detected by RT-PCR was calculated using the following equation: % correction=(intensity of 493 bp fragment band)/(intensity of 493 bp fragment band+intensity of 641 bp fragment band).

[5] = MDX mice, single IV 20 mg/kg, day 5

Q: `N=C(N)NCCC[C@H]1NC(=O)[C@H](CCCNC(N)=O)NC(=O)[C@@H](CCCNC(=N)N)NC(=O)[C@H](CCCNC(N)=O)NC(=O)[C@H](Cc2ccc3ccccc3c2)NC(=O)[C@@H](Cc2ccccc2)NC(=O)[C@H](Cc2ccccc2)NC(=O)[C@H](CCC(=O)NCCOCCOCCOCCOCCC(=O)N[C@@H](CCCCNC(=O)COCCOCCNC(=O)CCC(=O)NCCOCCOCCCCCCCl)C(N)=O)NC1=O` [Compound 1a, cyclo(FfΦ-Cit-r-Cit-rQ)-PEG4-K-NH2] (cyclo([2Nal][Cit][dR][Cit][dR]E([PEG4-X1])F[dF])) was tested. Which IC50 [1] did it give?
A: The IC50 was 849 nM.

Q: With `N=C(N)NCCC[C@H]1NC(=O)[C@H](CC2CCNCC2)NC(=O)[C@@H](CCCNC(=N)N)NC(=O)[C@H](CC2CCNCC2)NC(=O)[C@H](Cc2ccc3ccccc3c2)NC(=O)[C@@H](Cc2ccccc2)NC(=O)[C@H](Cc2ccccc2)NC(=O)[C@H](CCC(=O)NCCOCCOCCOCCOCCC(=O)N[C@@H](CCCCNC(=O)COCCOCCNC(=O)CCC(=O)NCCOCCOCCCCCCCl)C(N)=O)NC1=O` [Compound 2a, cyclo(FfΦ-Pia-r-Pia-rQ)-PEG4-K-NH2] (cyclo([2Nal][Ala(piperidin-4-yl)][dR][Ala(piperidin-4-yl)][dR]E([PEG4-X1])F[dF])) as the compound, how does the IC50 [1] read?
A: The IC50 was 881 nM.

Q: With `CN(C)CCCC[C@@H]1NC(=O)[C@H](Cc2ccc3ccccc3c2)NC(=O)[C@@H](Cc2ccccc2)NC(=O)[C@H](Cc2ccccc2)NC(=O)[C@H](CCC(=O)NCCOCCOCCOCCOCCC(=O)N[C@@H](CCCCNC(=O)COCCOCCNC(=O)CCC(=O)NCCOCCOCCCCCCCl)C(N)=O)NC(=O)[C@@H](CCCNC(=N)N)NC(=O)[C@H](CCCCN(C)C)NC(=O)[C@@H](CCCNC(=N)N)NC1=O` [Compound 3a, cyclo(FfΦ-Dml-r-Dml-rQ)-PEG4-K-NH2] (cyclo(F[dF][2Nal][Lys(Me2)][dR][Lys(Me2)][dR]E([PEG4-X1]))) as the compound, how does the IC50 [1] read?
A: Its IC50 is 932 nM.

Q: For `N=C(N)NCCC[C@H]1NC(=O)[C@H](CNC(=N)N)NC(=O)[C@@H](CCCNC(=N)N)NC(=O)[C@H](CNC(=N)N)NC(=O)[C@H](Cc2ccc3ccccc3c2)NC(=O)[C@@H](Cc2ccccc2)NC(=O)[C@H](Cc2ccccc2)NC(=O)[C@H](CCC(=O)NCCOCCOCCOCCOCCC(=O)N[C@@H](CCCCNC(=O)COCCOCCNC(=O)CCC(=O)NCCOCCOCCCCCCCl)C(N)=O)NC1=O` [Compound A, cyclo(FfΦ-Agp-r-Agp-rQ)-PEG4-K-NH2] (cyclo([2Nal][Agp][dR][Agp][dR]E([PEG4-X1])F[dF])), which IC50 [1] is on record?
A: The IC50 was 626 nM.

Q: With `N=C(N)NCCC[C@H]1NC(=O)[C@H](CCNC(=N)N)NC(=O)[C@@H](CCCNC(=N)N)NC(=O)[C@H](CCNC(=N)N)NC(=O)[C@H](Cc2ccc3ccccc3c2)NC(=O)[C@@H](Cc2ccccc2)NC(=O)[C@H](Cc2ccccc2)NC(=O)[C@H](CCC(=O)NCCOCCOCCOCCOCCC(=O)N[C@@H](CCCCNC(=O)COCCOCCNC(=O)CCC(=O)NCCOCCOCCCCCCCl)C(N)=O)NC1=O` [Compound B, cyclo(FfΦ-Agb-r-Agb-rQ)-PEG4-K-NH2] (cyclo([2Nal][Agb][dR][Agb][dR]E([PEG4-X1])F[dF])) as the compound, how does the IC50 [1] read?
A: Its IC50 is 695 nM.

Q: How did the IC50 [1] turn out when `N=C(N)NCCCC[C@@H]1NC(=O)[C@H](Cc2ccc3ccccc3c2)NC(=O)[C@@H](Cc2ccccc2)NC(=O)[C@H](Cc2ccccc2)NC(=O)[C@H](CCC(=O)NCCOCCOCCOCCOCCC(=O)N[C@@H](CCCCNC(=O)COCCOCCNC(=O)CCC(=O)NCCOCCOCCCCCCCl)C(N)=O)NC(=O)[C@@H](CCCNC(=N)N)NC(=O)[C@H](CCCCNC(=N)N)NC(=O)[C@@H](CCCNC(=N)N)NC1=O` [Compound C, cyclo(FfΦ-hR-r-hR-rQ)-PEG4-K-NH2] (cyclo([2Nal][hArg][dR][hArg][dR]E([PEG4-X1])F[dF])) was run?
A: Its IC50 is 786 nM.

Q: With `N=C(N)NCCC[C@H]1NC(=O)[C@H](Cc2ccc(NC(=N)N)cc2)NC(=O)[C@@H](CCCNC(=N)N)NC(=O)[C@H](Cc2ccc(NC(=N)N)cc2)NC(=O)[C@H](Cc2ccc3ccccc3c2)NC(=O)[C@@H](Cc2ccccc2)NC(=O)[C@H](Cc2ccccc2)NC(=O)[C@H](CCC(=O)NCCOCCOCCOCCOCCC(=O)N[C@@H](CCCCNC(=O)COCCOCCNC(=O)CCC(=O)NCCOCCOCCCCCCCl)C(N)=O)NC1=O` [Compound D, cyclo(FfΦ-4gp-r-4gp-rQ)-PEG4-K-NH2] (cyclo([2Nal][Phe(4-guanidino)][dR][Phe(4-guanidino)][dR]E([PEG4-X1])F[dF])) as the compound, how does the IC50 [1] read?
A: The IC50 was 695 nM.

Q: `CCOCc1nc2c(N)nc3ccccc3c2n1CC(C)(C)O` [Compound R848, reference compound] was tested. Which IRF5 protein expression [2] did it give?
A: Its IRF5 protein expression is “significantly increases IRF5 Protein expression”.

Q: For `N=C(N)NCCC[C@@H]1NC(=O)[C@H](Cc2ccc3ccccc3c2)NC(=O)[C@@H](Cc2ccccc2)NC(=O)[C@H](Cc2ccccc2)NC(=O)[C@H](CCC(=O)NCCOCCOCCOCCOCCC(=O)N[C@@H](CCCCNC(=O)COCCOCCNC(=O)CCC(=O)NCCOCCOCCCCCCCl)C(N)=O)NC(=O)[C@@H](CCCNC(=N)N)NC(=O)[C@H](CCCNC(=N)N)NC(=O)[C@@H](CCCNC(=N)N)NC1=O` [EEV12, cyclo(FfΦRrRrQ)-PEG4-K(chloroalkane)-NH2, reference compound] (cyclo([2Nal]R[dR]R[dR]E([PEG4-X1])F[dF])), which IC50 [1] is on record?
A: Its IC50 is 792 nM.

Q: Which “exon skipping in heart vs diaphragm, tibialis anterior, triceps” value (“exon skipping in heart vs diaphragm” below) ([3]; mouse, in vivo, iv, 20 mg/kg) does the source give for “Ac-KBK-AEEA-K(cyclo[FGFGRGRQ])-AEEA-K(N3)-NH2 [EEV-PMO-MDX-5]” here?
A: Its value is “a lower level of exon skipping in heart tissue”.

Q: “Ac-PKKKRKV-AEEA-K(cyclo[FGFGRGRQ])-AEEA-K(N3)-NH2 [EEV-PMO-MDX-4]” was tested. Which “exon skipping in heart vs diaphragm” value [3, 5] did it give?
A: Its value is “a lower level of exon skipping in heart tissue”.

Q: Which results are given for “Ac-PKKKRKV-AEEA-K(cyclo[FGFGRGRQ])-PEG12-OH [EEV-PMO-IRF5-1]”?
A: IRF-5 protein expression compared to cells stimulated with R848 ([2]; RAW 264.7 cells, all tested concentrations): significant reduction in IRF-5 protein expression; IRF5 protein levels ([2]; mouse macrophage cells, 30 μM, 10 μM and 3 μM): statistically significant reduction of IRF5 protein levels

Q: For “Ac-PKKKRKV-AEEA-K(cyclo[FfFGRGRQ])-AEEA-K(N3)-NH2 [EEV-PMO-MDX-7]”, which “exon skipping in heart vs diaphragm” value [3, 5] is on record?
A: Its value is “a lower level of exon skipping in heart tissue”.

Q: Which “exon skipping in heart vs diaphragm” value [3, 5] does the source give for “Ac-PKKKRKV-AEEA-K(cyclo[GfFGrGrQ])-AEEA-K(N3)-NH2 [EEV-PMO-MDX-6]” here?
A: Its value is “a lower level of exon skipping in heart tissue”.

Q: What does the source list for “Ac-PKKKRKV-AEEA-K(cyclo[GfFGrGrQ])-PEG12-OH [EEV-PMO-DMD44-2]”?
A: exon skipping ([4]; 10 mpk IV, Diaphragm): 14%; exon skipping ([4]; 10 mpk IV, TiA): 22%; exon skipping ([4]; 10 mpk IV, Triceps): 17%; exon skipping ([4]; 10 mpk IV, heart): 0%; exon skipping ([4]; 20 mpk IV, Diaphragm): 35%; exon skipping ([4]; 20 mpk IV, TiA): 58%; exon skipping ([4]; 20 mpk IV, Triceps): 44; exon skipping ([4]; 20 mpk IV, heart): 2%; exon skipping ([4]; 40 mpk IV, Diaphragm): 83%; exon skipping ([4]; 40 mpk IV, TiA): 95%; exon skipping ([4]; 40 mpk IV, Triceps): 92%; exon skipping ([4]; 40 mpk IV, heart): 17%; exon skipping ([4]; 80 mpk IV, Diaphragm): 99%; exon skipping ([4]; 80 mpk IV, TiA): 99%; exon skipping ([4]; 80 mpk IV, Triceps): 98%; exon skipping ([4]; 80 mpk IV, heart): 79%; minimum efficacious dose in the heart ([4]; IV): 40 mpk
